Laboratory results reported in paper PMC5463993, “Identification of an Efflux Transporter LmrB Regulating Stress Response and Extracellular Polysaccharide Synthesis in Streptococcus mutans” (Frontiers in Microbiology, 2017).

Biological target: T1, LmrB (Streptococcus mutans, UniProt Q8DUY5)
T1 construct: full-length (454 aa) with His-tag from pET28a, expressed in E. coli BL21 (DE3) cells; tested in whole cells
Assay: fluorometric efflux assay in E. coli BL21 (DE3) expressing LmrB versus empty vector
Type: cell-based
Settings: EtBr-loaded whole cells in PBS; CCCP (100 uM) as control blocker

T1 sequence (Q8DUY5 entry or part of it): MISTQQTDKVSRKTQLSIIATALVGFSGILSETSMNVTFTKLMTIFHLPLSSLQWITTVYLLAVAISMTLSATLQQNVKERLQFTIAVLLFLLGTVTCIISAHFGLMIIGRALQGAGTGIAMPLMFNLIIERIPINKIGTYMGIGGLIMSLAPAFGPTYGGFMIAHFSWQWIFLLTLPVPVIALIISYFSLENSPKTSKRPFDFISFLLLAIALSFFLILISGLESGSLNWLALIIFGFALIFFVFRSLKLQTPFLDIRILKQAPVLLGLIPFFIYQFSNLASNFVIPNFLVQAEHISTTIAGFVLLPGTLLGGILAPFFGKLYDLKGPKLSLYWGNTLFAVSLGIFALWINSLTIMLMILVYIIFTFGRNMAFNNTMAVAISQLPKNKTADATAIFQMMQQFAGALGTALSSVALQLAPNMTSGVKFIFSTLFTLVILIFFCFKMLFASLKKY

CC[n+]1c(-c2ccccc2)c2cc(N)ccc2c2ccc(N)cc21 [Ethidium bromide] was tested, and the “fluorometric efflux assay in E. coli BL21 (DE3) expressing LmrB versus empty vec” value was “the efflux activity of E. coli was higher for the bacterial culture harboring cloned pET28a-lmrB”.
